Holding throughout (format): physicochemical
Series [1] is described as follows: Comparative stability of MM salt forms. As to conditions: comparison of salt forms, in words.
Series [2] can be described thus: Comparative solubility of MM salt forms.
Series [3] is described as follows: Solubility in typical intravenous formulation solutions. As to conditions: viewed over 3 days, typical intravenous formulation solutions (e.g., 5% dextrose solution or water suitable for injection), 4320 min.

Each structure is given as a SMILES string. Counter-ions that a name gives are not always drawn.

The source of these data is patent US5545637A, “Process for preparing pharmaceutical compositions containing crystalline anhydrous mycophenolate mofetil salts” (Syntex (U.S.A.) Inc., priority 1995, dated 1996).

For the molecule `COc1c(C)c2c(c(O)c1C/C=C(\C)CCC(=O)OCCN1CCOCC1)C(=O)OC2` [MM in its monohydrate salt form], the stability entry in series [1] is “more stable than MM in its amorphous salt form”.
Turning to `COc1c(C)c2c(c(O)c1C/C=C(\C)CCC(=O)OCCN1CCOCC1)C(=O)OC2` [crystalline anhydrous salt form of MM], the “increase in solubility over the monohydrate salt form” value in series [2] (anhydrous vs monohydrate salt form) is recorded as “about a two-fold increase in solubility over the monohydrate salt form”. Besides, the stability entry in series [1] is recorded as “the same stability characteristics of the monohydrate salt form”.
For the molecule `COc1c(C)c2c(c(O)c1C/C=C(\C)CCC(=O)OCCN1CCOCC1)C(=O)OC2` [2-(4-morpholino)ethyl-(E)-6-(1,3-dihydro-4-hydroxy-6-methoxy-7-methyl-3-oxo-5-isobenzofuranyl)-4-methyl-4-hexenoate hydrochloride], the solubility result in series [3] (hydrochloride) is listed as “approximately 84 mg/ml”.
As to `COc1c(C)c2c(c(O)c1C/C=C(\C)CCC(=O)OCCN1CCOCC1)C(=O)OC2` [crystalline monohydrate form], the solubility result in series [3] is “approximately 40 mg/ml”.
Consider `COc1c(C)c2c(c(O)c1C/C=C(\C)CCC(=O)OCCN1CCOCC1)C(=O)OC2` [amorphous salt form], for which the solubility characteristics entry in series [2] (amorphous vs monohydrate salt form, in words) is given as “better solubility characteristics”.
